Source: PubChem BioAssay (NCI)
Where “and” joins values, the source holds several entries; their conditions need not be identical. Equal values may be shown once.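 Exposure lasted 48 hours, with cells grown in 96-well plates and compounds tested at five concentrations. GI50 = concentration required for 50% inhibition of growth. TGI is the concentration that stops growth completely.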

Columns and labels:
Assay in all cases: DTP human tumour cell line panel, 48 h
HT29 colon = tested on: HT29 colon
NCI-H460 lung = tested on: NCI-H460 lung
NCI/ADR-RES ovarian = tested on: NCI/ADR-RES ovarian
SF-295 CNS = tested on: SF-295 CNS
K-562 leukemia = tested on: K-562 leukemia
UACC-62 melanoma = tested on: UACC-62 melanoma
HOP-92 NSCLC = tested on: HOP-92 NSCLC
HCC-2998 colon = tested on: HCC-2998 colon
M14 melanoma = tested on: M14 melanoma
DU-145 prostate = tested on: DU-145 prostate

Row | Compound | GI50 (HT29 colon) [nM] | TGI (HT29 colon) [µM] | GI50 (NCI-H460 lung) [nM] | TGI (NCI-H460 lung) | GI50 (NCI/ADR-RES ovarian) [µM] | TGI (NCI/ADR-RES ovarian) [µM] | GI50 (SF-295 CNS) [µM] | GI50 (K-562 leukemia) [nM] | TGI (K-562 leukemia) | GI50 (UACC-62 melanoma) [nM] | TGI (UACC-62 melanoma) | TGI (HOP-92 NSCLC) | TGI (HCC-2998 colon) [µM] | TGI (M14 melanoma) [µM] | TGI (SF-295 CNS) | TGI (DU-145 prostate) [µM] | GI50 (HCC-2998 colon) | GI50 (M14 melanoma) [µM] | GI50 (DU-145 prostate) [µM] | GI50 (HOP-92 NSCLC) [nM]
1 | C[C@@H]1CC[C@H]2C(COCC3=C(C(F)(F)F)O[C@@H]4O[C@@]5(C)CC[C@H]6[C@H](C)CC[C@@H]3[C@@]46OO5)=C(C(F)(F)F)O[C@@H]3O[C@@]4(C)CC[C@@H]1[C@]32OO4 | < 10 | > 100 | < 10 | > 100 µM | 0.543 | > 100 | 0.1 | < 10 | > 100 µM | 60.9 | > 100 µM |  |  |  |  |  |  |  |  | 
2 | O=C1NC(c2ccc(O)cc2)C2CCC1C2 (centres undefined) |  | > 100 |  | > 100 µM |  |  |  |  | > 100 µM |  | > 100 µM | > 100 µM | > 100 | > 100 | > 100 µM |  |  |  |  | 
3 | O=[N+]([O-])[C@@H]1C2C=CC(C2)[C@H]1Cl (some centres undefined) |  | > 100 |  | > 100 µM |  |  |  |  | > 100 µM |  | > 100 µM | > 100 µM |  | > 100 | > 100 µM |  |  |  |  | 
4 | N/C(CC(=O)Nc1cc(C(F)(F)F)ccc1Cl)=N\O |  | > 100 |  | > 100 µM |  | > 100 |  |  | > 100 µM |  | > 100 µM | > 100 µM |  | > 100 | > 100 µM | > 100 |  |  |  | 
5 | O=C(C#Cc1c[nH]c(=O)[nH]c1=O)c1ccccc1Cl |  | 96.9 |  | 67.7 µM |  |  |  |  | > 100 µM |  | 38.6 µM | 35.4 µM | 30.8 | 28.8 | > 100 µM |  |  |  |  | 
6 | COc1ccc(-c2nn(-c3cccc(Cl)c3)cc2C2CC(c3ccccc3)=NN2C(C)=O)cc1 (centres undefined) | 5490 | > 100 | 4170 | > 100 µM | 6.96 | > 100 | 5.96 | > 100000 | > 100 µM | 15300 | > 100 µM |  | > 100 | > 100 | 40.6 µM | > 100 | > 100000 nM | 7.68 | 5.25 | 
7 | COc1ccc2cc1Oc1ccc(cc1)C[C@H]1c3cc(c(OC)cc3CCN1C)Oc1c(OC)c(OC)cc3c1[C@H](C2)N(C)CC3 |  |  |  | 14.5 µM |  |  | 12.8 |  | 11.1 µM and > 100 µM |  |  | 11 µM and 26 µM and > 100 µM | 8.65 |  | 16.3 µM and 28.9 µM and > 100 µM |  |  |  |  | 
8 | COc1ccc(/C=C/C=C(/C#N)C(N)=S)cc1 | 26000 | > 100 | 23700 | 65.9 µM |  |  | 31 | 29900 | > 100 µM | 19300 | 37.9 µM |  |  | 42.7 | > 100 µM | > 100 |  | 18.8 | 32.7 | 
9 | CCc1c2c(nc3cc4c(cc13)OCO4)-c1cc3c(c(=O)n1C2)COC(=O)[C@]3(O)CC | 53.7 | > 100 | < 1 | 1.09 µM and 0.617 µM |  |  | < 0.001 |  | > 100 µM | < 1 | 0.195 µM and 0.409 µM | > 100 µM | > 100 | > 100 |  | > 100 | 44.3 nM and 361 nM | < 0.001 |  | 19
10 | C1COCCN1.C1COCCN1.N.N.[Cl-].[Pt+2] |  |  | > 100000 | > 100 µM |  |  | > 100 |  |  | > 100000 | > 100 µM |  | > 100 | > 100 | > 100 µM |  | > 100000 nM | > 100 |  | 
11 | O=C(Nc1cccc(-n2ccc3c(NC(=O)c4ccccc4)nccc32)c1)c1cccc(C(F)(F)F)c1 | 33.2 | 0.388 | 35.4 | 1.22 µM | 0.0327 | > 100 | 0.0278 | 39.1 | > 38.2 µM | 38.6 | 6.91 µM | 8.07 µM | > 66.3 |  | 0.468 µM | 0.168 | 36.2 nM |  | 0.0363 | 281
12 | Cc1ccc(-c2c(N)nc(NC#N)nc2CCC(=O)Nc2ccccc2[N+](=O)[O-])cc1 |  | > 100 |  | > 100 µM |  |  |  |  | > 100 µM |  | > 100 µM | > 100 µM | > 100 | > 100 | > 100 µM |  |  |  |  | 
13 | N#CC(=C1SCS1)[N+](=O)[O-] | 336 | 11.2 | 2990 | 10.1 µM | 3.05 | 20 | 4.82 | 371 | > 100 µM | 2290 | 13.6 µM | 10.4 µM | 16.6 |  | 44.4 µM | 10.1 | 4260 nM |  | 2.56 | 365
14 | COc1cc2c(c3c1C=CCO3)C(=O)c1ccccc1C2=O |  | > 100 |  | > 100 µM |  |  |  |  | > 100 µM |  | > 100 µM | > 100 µM | > 100 | > 100 | > 100 µM |  |  |  |  | 
15 | CCCCCCCCCCCCC(=O)OC(c1cnco1)c1nc(C(O)CC(O)C(O)C(C)O)co1 (centres undefined) | 1100 | > 100 | 443 | > 37 µM |  |  | 1.52 | 426 | > 100 µM | 896 | 2.87 µM | > 100 µM | > 100 | > 63.8 | 98.3 µM |  | 1680 nM | 0.794 |  | 1620
16 | FC(F)(F)c1nc(-c2ccccc2Cl)[nH]c1C(F)(F)F |  | 4.22 |  | 4.17 µM |  |  |  |  | 4.29 µM |  | 3.8 µM | 1.22 µM |  | 4.83 | 2.03 µM |  |  |  |  | 
17 | N#CC1(c2nc3ccccc3o2)C(=O)C(=O)N(C2C3CC4CC(C3)CC2C4)C(=O)C1=O (centres undefined) |  | > 100 |  | > 100 µM |  |  |  |  | > 100 µM |  | > 100 µM | > 100 µM | > 100 | > 100 | > 100 µM |  |  |  |  | 
18 | C=CCSC[C@H](NC(=O)COc1ccccc1)C(=O)NC(C(=O)OCc1ccc([N+](=O)[O-])cc1)=C(C)C |  | > 100 |  | > 100 µM |  |  |  |  | > 100 µM |  | > 100 µM |  | > 100 | > 100 | > 100 µM |  |  |  |  | 
19 | COC(=O)C1OC(O[C@H]2CCC3(C)C(CCC4(C)C3CC=C3C5CC(C)(C)CCC5(C(=O)O)CC[C@]34C)C2(C)C)C(O)C(OC2OC(CO)C(O)C(O)C2O)C1O (some centres undefined) | 12400 | > 33.3 | 11500 | > 33.3 µM | 7.24 | 13.5 | 11.8 | 8170 | 26.6 µM | 6230 | 11.7 µM | 14.5 µM | 12.4 | 11.5 | > 33.3 µM |  | 7140 nM | 6.22 |  | 7120
